# In patent publication US12215133B2 (BrightGene Bio-Medical Technology Co., Ltd., priority 2021, dated 2025):
# Tests used:
# db/db mice [1] = experiment: Inhibitory effect of BG128 on hyperglycemia in db/db mice (Experimental Example 3); type: in vivo
# Method: 55 6-8 week-old SPF-grade male db/db mice were purchased from Zhejiang Vital River Experimental Animal Technology Co., Ltd.
# According to the dosage regimen in Table 7, a certain amount of Tirzepatide and BG128 were weighed and the vehicle (pH=7.0, 20 mM sodium citrate buffer) was added to formulated to the corresponding concentration. The formulation was performed once every 7 days, and the formulated mixture was sub-packaged and stored at 2° C.-8° C. in the dark.
# Before the administration, according to the body weight and fasting blood glucose, the animals were grouped into: db/db-ND group, Tirzepatide—0.15 mg/kg group, BG128—0.05 mg/kg group, BG128—0.15 mg/kg group and BG128—0.5 mg/kg group, and each group have 11 animals; and see Table 7 for details.
# The day of the first administration was recorded as d1, and the time was recorded by analogy; Tirzepatide and BG128 were administered once every three days, and the time points were d1, d4, d7, d10, d13, d16, d19, d22, d25 and d28, a total of 10 administrations; and see Table 7 for details.
# Weighing: animals were weighed before administration once every three days until the end of the experiment.
# The food intake of the animals was recorded starting at three days before the grouping for administration until the end of the experiment. The remaining amount was weighed before administration each time.
# 1) Non-fasting blood glucose determination: first administration 0 h (pre), 1 h, 2 h, 3 h, 6 h, 24 h, 48 h, 72 h;
# 2) Fasting blood glucose: the determination dates were respectively d-1 (before grouping), d7, d13, d19, d25 and d31. The animals were fasted for 6 hours, and the fasting blood glucose was determined before administration.
# 3 days after the last administration, the animals were weighed and fasted for 6 hours, and the fasting blood glucose of the animals was determined; after anesthesia, a portion of non-anticoagulated whole blood was collected through the orbital venous plexus, stood at room temperature for 30 minutes, and centrifuged at 5000 rpm for 5 minutes, the serum was separated and frozen at −80° C. for the determination of serum insulin content; a portion of anticoagulated whole blood was collected for the determination of HbA1c content. The serum insulin was determined by Elisa method.
# The data was organized in Excel 2017 and Prism6.0, and the data was expressed as Mean±SEM (standard error). One-way ANOVA was used for analysis, and Tukey was selected as the analysis method for comparing significance of difference between groups; when the two groups were compared, T-test was used for two-tailed test between the two groups. […]
# GLP-1 receptor = molecular target: T1, GLP-1 receptor (Homo sapiens, UniProt P43220); experiment: cAMP experiment, GLP-1 receptor (HEK293 host cell line); type: cell-based; details: HEK293 host cells
# T1 construct: expressed in transfected cells; host or cells: HEK293 cell line
# T1 sequence (P43220 24-463, species assumed): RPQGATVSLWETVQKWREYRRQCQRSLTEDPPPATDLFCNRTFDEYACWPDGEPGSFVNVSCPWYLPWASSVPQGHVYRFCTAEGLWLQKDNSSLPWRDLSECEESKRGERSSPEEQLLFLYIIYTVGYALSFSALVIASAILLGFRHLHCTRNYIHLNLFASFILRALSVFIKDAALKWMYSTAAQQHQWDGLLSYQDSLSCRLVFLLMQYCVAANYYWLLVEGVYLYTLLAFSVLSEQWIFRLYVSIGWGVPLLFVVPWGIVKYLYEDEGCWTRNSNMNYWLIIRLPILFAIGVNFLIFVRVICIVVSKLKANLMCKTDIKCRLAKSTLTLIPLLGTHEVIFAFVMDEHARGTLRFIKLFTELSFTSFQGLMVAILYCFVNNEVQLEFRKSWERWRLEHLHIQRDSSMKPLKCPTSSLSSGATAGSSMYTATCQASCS
# db/db mice [2] = experiment: Hypoglycemic effect of BG121 and BG128 in db/db mice (Experimental Example 2); type: in vivo; details: for glycosylated hemoglobin content in serum vs solvent control / insulin content in serum vs solvent control: 25 days after administration; for glycosylated hemoglobin content in serum vs solvent control: FIG. 6; for insulin content in serum vs solvent control: FIG. 7; for body weight vs solvent control: day 4, 7, 10, 13, 16, 19, 22, FIG. 5; for non-fasting blood glucose vs solvent control: FIG. 3
# Method: Germline: BKS mice (db/db mice); source: Gempharmatech Co., Ltd.; license key: SCXK (SU) 2018-0008; certificate number: 202100117; grade: SPF; number: 32; gender: male; age: 8 weeks (at the beginning of modeling); animal identification: ear tag.
# Feeding conditions: temperature: 22±2° C.; humidity: 40%-70%; lighting: artificial lighting simulates day and night changes; drinking water: free to drink; feed: mouse breeding feed, wherein the mice were fasted overnight before determining fasting blood sugar, and the mice were free to eat for the rest of the time.
# Formulation of BG128 (1 mg/ml) stock solution: a certain amount of BG128 was weighed, an appropriate volume of solvent (20 mM citric acid, pH 7.0) was added, and the mixture was sub-packaged at 100 μl/tube and frozen at −80° C. for later use;
# BG128 (0.0151 mg/ml, for 30 nmol/kg administration): 90 μL of the 1 mg/mL stock solution was taken and added to a 10 mL EP together with 810 μL of the solvent, the mixture was homogeneously mixed in a vortex mixer, then 5044 μL of the solvent was added, and the mixture was homogeneously mixed in a vortex mixer and used up on the same day;
# BG128 (0.0050 mg/ml, for 10 nmol/kg administration): 2 mL of BG128 ([…]) were taken, and 4 mL of the solvent was added, and the mixture was homogeneously mixed in a vortex mixer and used up on the same day.
# 32 SPF-grade male BKS-DB mice (db/db mice) were fed adaptively for 1 week. […] During the experiment, the experimenters need to observe the signs and health conditions of the experimental animals. Any abnormal manifestations of animals, such as pain, depression, decreased activity, etc., should be recorded in the original experimental records. If the abnormal manifestations of the experimental animals exceed the regulations in relevant documents for animal welfare, the animal can be euthanized after being notified.
# Modeling method: db/db mice would develop spontaneous type 2 diabetes after being fed for 6 weeks, and the mice would develop symptoms, such as obesity, insulin resistance and hyperglycemia;
# Mode of administration: it was intended to use subcutaneous injection by the clinical route of administration, the volume of administration is: 10 mL/kg, once every 3 days, for 22 consecutive days;
# Fasting blood glucose determination: according to the above-mentioned animal grouping and administration dose, the fasting blood glucose of the mice was determined two days before the first administration and the body weight was determined. […] The fasting blood glucose levels were determined on day 7, 13, 19, and 25 after the first administration (changing the bedding and fasting before the fasting blood glucose determination), and the mice were fasted;
# Non-fasting blood glucose determination: the blood glucose was determined at time points of 1, 3, 6, 24, 48, and 72 hours after the first administration;
# Body weight determination: determined twice a week;
# Food intake determination: determined twice a week.
# After 25 days of administration, blood samples were collected by picking the eyeballs, and the serum insulin and glycosylated hemoglobin contents of the mice were determined respectively.
# All reported determination data was calculated using GraphPad prism8.0 software for group mean and standard deviation.
# [3] = 0.5 mg/kg s.c. once every three days, anticoagulated whole blood, end of experiment, Mean ± SEM
# [4] = 10 nmol/kg s.c. once every 3 days
# [5] = 30 nmol/kg s.c. once every 3 days
structure (smiles),measurement,setting,value
CNC(CCCCNC(=O)COCCOCCOCCNC(=O)COCCOCCOCCNC(=O)CCC(NC(=O)CC(=O)O)C(=O)O)C(N)=O (centres unmarked) [BG128],HbA1C,"db/db mice [1]; 0.15 mg/kg s.c. once every three days, anticoagulated whole blood, end of experiment, Mean ± SEM",5.31 ± 0.19
same,HbA1C,db/db mice [1]; [3],4.68 ± 0.20
same,HbA1C%,db/db mice [1]; [3],3.33 ± 0.16^abde %
same,blood sugar suppression effect (non-fasting) compared with Tirzepatide,"db/db mice [1]; within 72 h of the first administration, equal dose 0.15 mg/kg, FIG. 11",dose-dependent and better than that of positive drug Tirzepatide
same,EC50,GLP-1 receptor,0.11 nM
same,glycosylated hemoglobin content in serum vs solvent control,db/db mice [2]; [4],no significant difference
same,insulin content in serum vs solvent control,db/db mice [2]; [4],significantly lower than that in the solvent control group
same,body weight vs solvent control,db/db mice [2]; [4],no significant difference
same,non-fasting blood glucose vs solvent control,"db/db mice [2]; 10 nmol/kg s.c., 1, 3, 6, 24, 48 and 72 h after first administration",reduce the blood glucose at each time point after the administration in a dose dependent manner
same,glycosylated hemoglobin content in serum vs solvent control,db/db mice [2]; [5],significantly lower than that in the BG121 (30 nmol/kg) administration group and the solvent control group
same,insulin content in serum vs solvent control,db/db mice [2]; [5],significantly lower than that in the solvent control group
same,body weight vs solvent control,db/db mice [2]; [5],significantly lower than that in the solvent control group and the BG121 (30 nmol/kg) administration group
same,fasting blood glucose vs solvent control,"db/db mice [2]; 30 nmol/kg s.c. once every 3 days, day 19 and 25 after first administration, FIG. 4",significantly reduce the fasting blood glucose level
same,non-fasting blood glucose vs solvent control,"db/db mice [2]; 30 nmol/kg s.c., 1, 3, 6, 24, 48 and 72 h after first administration",reduce the blood glucose at each time point after the administration in a dose dependent manner
